Data from patent US8273344B2, “Recombinant adeno-associated virus expressing human antisense gene CyP2J2 and its preparation methods” (priority 2004, dated 2012).
Values joined by “and” are separate entries in the source; they are usually repeats but may differ in a detail not shown here. Equal entries are not always repeated.

Experiments:
tumor = test: Growth of tumor under EET blocker (FIG. 16); conditions: FIG. 16, 100 nmol/L
Akt, Bcl-2, Bcl-xL, Bax = assay type: cell-based
four tumor cell lines = test: Proliferation of four kinds of tumor cells in vitro; assay type: cell-based, human; conditions: FIG. 15, dose dependence
Text: The epoxygenase metabolizes arachidonic acid to yield endogenous epoxyeicosatrienoic acids. Thus, the EETs concentration is increased indirectly. This can directly verity that the function of CYP epoxygenase for promoting proliferation of tumor cells.

[1] = tested on: Tca-8113, A549, Ncl-H446, and HepG2 cell lines; test: Migration and invasion of tumor cells in modified Boyden chamber; assay type: cell-based, human; conditions: 5 h, P<0.01
Procedure: The migration of epithelial cells in the modified Boyden chamber is measured using a conventional method. A polycarbonate filter membrane of […] is coated at 4° C. for 24 h using collagen IV (10 μg/mL) and Matrigel (11 μg/filter). The Tca-8113, A549, Ncl-H446, and HepG2 cell lines are washed with DMEM culture solution to 2×10^6/mL. 200 μL of DMEM containing 5% FBS is added to the low part of the Boyden chamber as a chemoattractant, and followed by covering a polycarbonate filter membrane. 800 μL of a cell suspension is added to the upper part of the Boyden chamber, cultured at 37° C. at 5% CO2 for 5 h. The device is disassembled and the membrane is collected. The cells are cleaned off, and the membrane is fixed with carbinol and stained with hematoxylin. Five fields of vision per membrane are observed under a 200× microscope. Subsequently, the number of migrating cells is calculated.

[2] = tested on: four different kinds of tumor cell lines; test: TNFα-induced apoptosis of tumor cells (DNA ladder, acridine orange staining, flow cytometry); assay type: cell-based, human; conditions: for total apoptotic rate: flow cytometry; for number of apoptotic cells (acridine orange / ethidium bromide staining): fluorescent microscope, vs control group
Procedure: A week later, TNFα is used to induce the apoptosis of tumor cells. The apoptosis is measured using different methods. […] Thus, the EETs and epoxygenase gene resist the apoptosis of cancer cells induced by TNF-α. After PI staining and Annexin V-FITC/PI dobule staining separatively, the total apoptosis rate and early apoptosis rate of cells are calculated using flow cytometry.

transplantation tumor = test: Growth of transplantation tumor under epoxygenase inhibitor (FIG. 17); assay type: in vivo; conditions: FIG. 17, without joint use of 5-fluorouracil
[3] = EET pretreatment experiment, control 28.15%±4.7

Compound	growth of tumor (tumor)	expression of antiapoptosis protein Bcl-2 and Bcl-xL (Akt, Bcl-2, Bcl-xL, Bax)	expression of apoptosis protein Bax (Akt, Bcl-2, Bcl-xL, Bax)	phosphorylation of Akt (Akt, Bcl-2, Bcl-xL, Bax)	growth of tumor cells (four tumor cell lines)	ability of migrating of cells relative to basal state [1]	total apoptotic rate [2, 3]	number of apoptotic cells (acridine orange / ethidium bromide staining) [2]	apoptosis of tumor cells (in words) ([2]; induced by TNF-α)	total apoptotic rate ([2]; transfection experiment, control 20.15%±3.5)	growth of transplantation tumor (transplantation tumor)	formation of DNA ladder ([2]; TNFα-induced apoptosis)
CCCCCC1OC1C/C=C\C/C=C\C/C=C\CCCC(=O)O (centres unmarked) [14, 15-EET]	can inhibit											
C#CCCCCCCCCCCCCCCCC(=O)O [17-ODYA]		completely opposite effect	completely opposite effect	completely opposite effect	dose-dependently inhibits	about 60 % of basal state	52.65%±3.6	large	promotes significantly	33.51%±6.1	can inhibit	
epoxyeicosatrienoic acids [EETs]		increase	decrease	promote			14.94%±3.5 and 11.72%±4.2 and 12.89%±2.7	significantly less				decrease significantly
